Test results from US20230295119A1, “SUBSTITUTED PYRIDINES FOR THE TREATMENT OF INFLAMMATORY DISEASES” (GOSSAMER BIO SERVICES, INC., priority 2020, published 2023).
Where two headings read alike, the source gives them in different places.

How the values were obtained:
TYK2 JH2 domain = TYK2 JH2 domain (Homo sapiens (Human), UniProt P29597); assay: TYK2 JH2 NanoBRET assay; format: binding
Method: HEK293T cells were transfected with NanoLuc-TYK2 JH2 Fusion Vector (Promega, customized) using Trans-IT reagent (Mirus, #MIR2700) and incubated for overnight in 37° C. incubator. […] Add 85 µL of cell suspension into white, polypropylene, 96-well plates (Corning, #3600). 90 µL of cells were used for no tracer control samples. 5 µL of diluted NanoBRET K10 tracer (Promega, #CS1810C122) were added to cells to a final concentration of 0.5 µM. Test compounds were diluted into DMSO, and then phenol-free opti-MEM to 10X of final concentration. 10 µL of diluted compounds were added into each well. The cells were incubated with test compound and tracer for 2 hours. 3XNanoBRET® Nano-Glo® Substrate and Extracellular NanoLuc® Inhibitor mixture were prepared and 50 µL of the mixture were added into the wells and mixed. […] NanoBRET signal was determined by using the ratio of acceptor signal and donor signal.

human JAK1 = human JAK1 (Homo sapiens (Human), UniProt P23458); assay: JAK1 TR-FRET kinase assay; format: biochemical; details: TR-FRET, JAK1 2.5 nM
human JAK2 = human JAK2 (Homo sapiens (Human), UniProt O60674); assay: JAK2 TR-FRET kinase assay; format: biochemical; details: JAK2 0.025 nM
human JAK3 = human JAK3 (Homo sapiens (Human), UniProt P52333); assay: JAK3 TR-FRET kinase assay; format: biochemical; details: JAK3 0.0125 nM
[1] = HEK293T cells, Table 19, read-out: IC50 (nM), TYK2 activity

Sequence of human JAK1 (P23458 whole entry): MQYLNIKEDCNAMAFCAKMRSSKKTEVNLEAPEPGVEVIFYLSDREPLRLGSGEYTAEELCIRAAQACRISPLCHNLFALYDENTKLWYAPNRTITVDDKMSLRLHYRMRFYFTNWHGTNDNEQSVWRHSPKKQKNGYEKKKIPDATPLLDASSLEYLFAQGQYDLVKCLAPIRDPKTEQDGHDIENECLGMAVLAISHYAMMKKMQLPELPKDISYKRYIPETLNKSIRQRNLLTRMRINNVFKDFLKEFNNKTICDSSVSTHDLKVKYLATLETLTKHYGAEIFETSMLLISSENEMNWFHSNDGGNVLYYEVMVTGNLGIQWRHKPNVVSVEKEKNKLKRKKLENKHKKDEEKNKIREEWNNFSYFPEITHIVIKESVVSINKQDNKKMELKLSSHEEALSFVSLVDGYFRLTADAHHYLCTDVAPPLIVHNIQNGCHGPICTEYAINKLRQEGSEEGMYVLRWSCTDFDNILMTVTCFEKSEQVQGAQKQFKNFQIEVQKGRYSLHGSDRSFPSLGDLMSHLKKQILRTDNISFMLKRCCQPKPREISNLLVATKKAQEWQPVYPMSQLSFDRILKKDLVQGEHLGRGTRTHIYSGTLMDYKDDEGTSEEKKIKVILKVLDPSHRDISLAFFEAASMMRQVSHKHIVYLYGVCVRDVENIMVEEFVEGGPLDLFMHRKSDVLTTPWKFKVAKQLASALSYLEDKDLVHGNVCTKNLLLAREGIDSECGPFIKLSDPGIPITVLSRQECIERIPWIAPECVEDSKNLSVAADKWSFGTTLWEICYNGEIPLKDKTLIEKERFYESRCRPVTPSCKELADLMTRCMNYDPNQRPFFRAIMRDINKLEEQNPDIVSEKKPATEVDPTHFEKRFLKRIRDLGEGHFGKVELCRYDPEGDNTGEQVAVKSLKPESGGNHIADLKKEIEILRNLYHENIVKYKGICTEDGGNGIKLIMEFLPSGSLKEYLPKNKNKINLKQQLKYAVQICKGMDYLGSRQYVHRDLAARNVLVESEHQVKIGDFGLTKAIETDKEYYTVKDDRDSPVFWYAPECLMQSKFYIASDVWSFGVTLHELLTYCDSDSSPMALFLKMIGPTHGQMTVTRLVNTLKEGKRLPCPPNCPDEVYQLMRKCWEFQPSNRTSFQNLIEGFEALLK
Sequence of TYK2 JH2 domain (P29597 589-875): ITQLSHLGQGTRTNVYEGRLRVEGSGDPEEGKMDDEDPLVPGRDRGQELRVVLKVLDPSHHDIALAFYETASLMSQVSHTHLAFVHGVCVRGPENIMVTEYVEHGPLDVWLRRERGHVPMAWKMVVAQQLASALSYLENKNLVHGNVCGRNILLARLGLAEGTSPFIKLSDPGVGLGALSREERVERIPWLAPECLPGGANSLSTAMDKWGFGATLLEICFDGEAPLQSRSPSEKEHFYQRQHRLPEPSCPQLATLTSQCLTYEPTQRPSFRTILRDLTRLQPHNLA
Sequence of human JAK2 (O60674 whole entry): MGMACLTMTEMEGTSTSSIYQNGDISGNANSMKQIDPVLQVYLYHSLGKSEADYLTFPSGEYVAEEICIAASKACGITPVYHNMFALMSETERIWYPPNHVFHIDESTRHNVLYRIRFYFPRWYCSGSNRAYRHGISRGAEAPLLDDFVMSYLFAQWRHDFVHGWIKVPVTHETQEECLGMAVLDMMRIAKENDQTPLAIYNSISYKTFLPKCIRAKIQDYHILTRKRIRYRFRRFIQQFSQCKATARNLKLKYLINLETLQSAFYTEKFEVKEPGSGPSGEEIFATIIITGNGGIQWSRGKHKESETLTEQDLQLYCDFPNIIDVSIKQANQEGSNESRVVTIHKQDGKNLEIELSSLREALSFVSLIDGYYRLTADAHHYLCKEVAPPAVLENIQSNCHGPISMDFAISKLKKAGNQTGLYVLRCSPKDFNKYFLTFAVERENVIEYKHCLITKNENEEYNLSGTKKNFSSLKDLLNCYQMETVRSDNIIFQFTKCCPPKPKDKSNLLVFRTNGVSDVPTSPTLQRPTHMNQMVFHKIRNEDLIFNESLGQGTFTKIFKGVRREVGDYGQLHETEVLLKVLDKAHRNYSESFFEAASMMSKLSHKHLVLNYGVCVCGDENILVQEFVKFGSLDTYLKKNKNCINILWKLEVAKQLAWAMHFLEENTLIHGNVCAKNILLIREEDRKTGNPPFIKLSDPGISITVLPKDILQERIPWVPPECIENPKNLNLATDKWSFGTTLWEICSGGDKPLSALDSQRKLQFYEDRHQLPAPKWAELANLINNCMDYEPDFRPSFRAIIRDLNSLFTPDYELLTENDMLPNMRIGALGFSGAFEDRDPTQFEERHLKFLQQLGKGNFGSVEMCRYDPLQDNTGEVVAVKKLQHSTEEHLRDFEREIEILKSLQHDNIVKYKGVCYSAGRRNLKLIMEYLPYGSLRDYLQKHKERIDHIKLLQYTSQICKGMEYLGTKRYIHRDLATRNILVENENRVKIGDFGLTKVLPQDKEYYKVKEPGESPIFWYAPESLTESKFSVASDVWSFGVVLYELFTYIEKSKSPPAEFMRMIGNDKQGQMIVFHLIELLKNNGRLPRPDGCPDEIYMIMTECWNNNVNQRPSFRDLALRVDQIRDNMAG
Sequence of human JAK3 (P52333 whole entry): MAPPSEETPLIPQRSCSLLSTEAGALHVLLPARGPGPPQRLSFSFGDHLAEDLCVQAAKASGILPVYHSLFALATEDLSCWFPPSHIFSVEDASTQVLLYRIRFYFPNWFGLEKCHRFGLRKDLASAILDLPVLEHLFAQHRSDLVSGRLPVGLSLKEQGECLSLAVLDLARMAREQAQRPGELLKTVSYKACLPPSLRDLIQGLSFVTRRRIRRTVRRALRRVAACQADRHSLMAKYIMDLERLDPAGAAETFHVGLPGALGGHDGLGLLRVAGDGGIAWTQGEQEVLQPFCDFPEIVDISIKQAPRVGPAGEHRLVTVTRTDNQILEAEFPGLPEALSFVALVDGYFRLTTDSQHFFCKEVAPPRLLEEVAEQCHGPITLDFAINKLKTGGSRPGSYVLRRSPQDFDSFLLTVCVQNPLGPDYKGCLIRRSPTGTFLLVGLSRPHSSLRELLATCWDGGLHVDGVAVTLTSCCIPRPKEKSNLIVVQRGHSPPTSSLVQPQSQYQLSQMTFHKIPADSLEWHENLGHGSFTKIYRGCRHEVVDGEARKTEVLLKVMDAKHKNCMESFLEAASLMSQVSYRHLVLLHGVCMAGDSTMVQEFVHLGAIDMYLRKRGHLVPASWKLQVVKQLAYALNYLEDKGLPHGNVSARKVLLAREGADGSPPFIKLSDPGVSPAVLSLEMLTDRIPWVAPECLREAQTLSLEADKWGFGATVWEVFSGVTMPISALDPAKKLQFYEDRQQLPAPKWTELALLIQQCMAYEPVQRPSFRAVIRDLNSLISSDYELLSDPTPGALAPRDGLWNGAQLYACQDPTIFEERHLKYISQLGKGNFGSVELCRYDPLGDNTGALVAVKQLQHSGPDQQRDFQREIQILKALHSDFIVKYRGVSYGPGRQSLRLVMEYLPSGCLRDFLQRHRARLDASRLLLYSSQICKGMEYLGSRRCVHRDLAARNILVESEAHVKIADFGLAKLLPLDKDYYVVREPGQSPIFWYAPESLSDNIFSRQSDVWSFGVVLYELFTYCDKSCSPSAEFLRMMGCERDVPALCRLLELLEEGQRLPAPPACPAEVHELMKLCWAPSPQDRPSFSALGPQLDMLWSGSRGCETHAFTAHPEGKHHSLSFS

| Compound | IC50 (TYK2 JH2 domain; [1]) [nM] | IC50 (human JAK1) [nM] | IC50 (human JAK2) [nM] | IC50 (human JAK3) [nM] | IC50 (TYK2 JH2 domain; Table 20, read-out: TYK2 IC50) [nM] |
| --- | --- | --- | --- | --- | --- |
| COc1c(Nc2cc(NC(=O)C3CC3)ncc2C(C)=O)cccc1-c1ncn(C)n1 [Compound 1A, N-(5-acetyl-4-((2-methoxy-3-(1-methyl-1H-1,2,4-triazol-3-yl)phenyl)amino)pyridin-2-yl)cyclopropanecarboxamide] | < 5 |  |  |  |  |
| COc1c(Nc2cc(NC(=O)OC(C)(C)C)ncc2C(C)=O)cccc1-c1ncn(C)n1 [Compound 1D] | 50 to 500 |  |  |  |  |
| COc1c(Nc2cc(NC(C)=O)ncc2C(C)=O)cccc1-c1ncn(C)n1 [Compound 1G] | 5 to 50 |  |  |  |  |
| CCC(=O)Nc1cc(Nc2cccc(-c3ncn(C)n3)c2OC)c(C(C)=O)cn1 [Compound 1H] | 5 to 50 |  |  |  |  |
| CCCC(=O)Nc1cc(Nc2cccc(-c3ncn(C)n3)c2OC)c(C(C)=O)cn1 [Compound 1I] | < 5 |  |  |  |  |
| COc1c(Nc2cc(NC(=O)C3CCC3)ncc2C(C)=O)cccc1-c1ncn(C)n1 [Compound 1J] | 5 to 50 |  |  |  |  |
| COc1c(Nc2cc(NC(=O)[C@@H]3C[C@@H]3F)ncc2C(C)=O)cccc1-c1ncn(C)n1 [Compound 1K] | < 5 |  |  |  |  |
| COc1c(Nc2cc(NC(=O)[C@H]3C[C@H]3F)ncc2C(C)=O)cccc1-c1ncn(C)n1 [Compound 1L] | 5 to 50 |  |  |  |  |
| COc1c(Nc2cc(NC(=O)CN(C)C)ncc2C(C)=O)cccc1-c1ncn(C)n1 [Compound 1M] | 50 to 500 |  |  |  |  |
| COC(=O)Nc1cc(Nc2cccc(-c3ncn(C)n3)c2OC)c(C(C)=O)cn1 [Compound 1N] | 50 to 500 |  |  |  |  |
| COc1c(Nc2cc(NC(=O)CN3CCOCC3)ncc2C(C)=O)cccc1-c1ncn(C)n1 [Compound 1O] | 50 to 500 |  |  |  |  |
| COc1c(Nc2cc(NC(=O)N(C)C)ncc2C(C)=O)cccc1-c1ncn(C)n1 [Compound 1P] | 50 to 500 |  |  |  |  |
| COc1c(Nc2cc(N)ncc2C(C)=O)cccc1-c1ncn(C)n1 [Compound 2, 1-(6-amino-4-((2-methoxy-3-(1-methyl-1H-1,2,4-triazol-3-yl)phenyl)amino)pyridin-3-yl)ethan-1-one] | ≥ 500 |  |  |  |  |
| COC(=O)c1cnc(NC(=O)C2CC2)cc1Nc1cccc(-c2ncn(C)n2)c1OC [Compound 3, methyl 6-(cyclopropanecarboxamido)-4-((2-methoxy-3-(1-methyl-1H-1,2,4-triazol-3-yl)phenyl)amino)nicotinate] | < 5 |  |  |  |  |
| COc1c(Nc2cc(Nc3ccc(F)cc3)ncc2C(C)=O)cccc1-c1ncn(C)n1 [Compound 7B] | ≥ 500 |  |  |  |  |
| COc1c(Nc2cc(Nc3ccccn3)ncc2C(C)=O)cccc1-c1ncn(C)n1 [Compound 7C] | < 5 |  |  |  |  |
| COc1c(Nc2cc(Nc3cc(C)ccn3)ncc2C(C)=O)cccc1-c1ncn(C)n1 [Compound 7D] | < 5 |  |  |  |  |
| COc1ccnc(Nc2cc(Nc3cccc(-c4ncn(C)n4)c3OC)c(C(C)=O)cn2)c1 [Compound 7E] | < 5 |  |  |  |  |
| COc1c(Nc2cc(Nc3cc(C#N)ccn3)ncc2C(C)=O)cccc1-c1ncn(C)n1 [Compound 7F] | < 5 |  |  |  |  |
| COc1c(Nc2cc(Nc3ncccc3F)ncc2C(C)=O)cccc1-c1ncn(C)n1 [Compound 7G] | 5 to 50 |  |  |  |  |
| COc1c(Nc2cc(Nc3ccc(F)cn3)ncc2C(C)=O)cccc1-c1ncn(C)n1 [Compound 7H] | < 5 |  |  |  |  |
| COc1ccc(Nc2cc(Nc3cccc(-c4ncn(C)n4)c3OC)c(C(C)=O)cn2)nc1 [Compound 7I] | < 5 |  |  |  |  |
| COc1c(Nc2cc(Nc3cccc(C)n3)ncc2C(C)=O)cccc1-c1ncn(C)n1 [Compound 7J] | < 5 |  |  |  |  |
| COc1cccc(Nc2cc(Nc3cccc(-c4ncn(C)n4)c3OC)c(C(C)=O)cn2)n1 [Compound 7K] | < 5 |  |  |  |  |
| COc1c(Nc2cc(Nc3cc(C)c(F)cn3)ncc2C(C)=O)cccc1-c1ncn(C)n1 [Compound 7L] | < 5 |  |  |  |  |
| COc1c(Nc2cc(Nc3cc(C)c(Cl)cn3)ncc2C(C)=O)cccc1-c1ncn(C)n1 [Compound 7M] | < 5 |  |  |  |  |
| COc1c(Nc2cc(Nc3ccc(N4CCOCC4)cn3)ncc2C(C)=O)cccc1-c1ncn(C)n1 [Compound 7N] | < 5 |  |  |  |  |

| Compound | IC50 (TYK2 JH2 domain; [1]) [nM] | IC50 (human JAK1) [nM] | IC50 (human JAK2) [nM] | IC50 (human JAK3) [nM] | IC50 (TYK2 JH2 domain; Table 20, read-out: TYK2 IC50) [nM] |
| --- | --- | --- | --- | --- | --- |
| COc1c(Nc2cc(Nc3ncccn3)ncc2C(C)=O)cccc1-c1ncn(C)n1 [Compound 7O] | 50 to 500 |  |  |  |  |
| COc1c(Nc2cc(Nc3ncc(F)cn3)ncc2C(C)=O)cccc1-c1ncn(C)n1 [Compound 7P] | 50 to 500 |  |  |  |  |
| COc1c(Nc2cc(Nc3cc(C)ncn3)ncc2C(C)=O)cccc1-c1ncn(C)n1 [Compound 7Q] | < 5 |  |  |  |  |
| COc1c(Nc2cc(Nc3ccnc(C)n3)ncc2C(C)=O)cccc1-c1ncn(C)n1 [Compound 7R] | < 5 |  |  |  |  |
| CCOc1ccc(Nc2cc(Nc3cccc(-c4ncn(C)n4)c3OC)c(C(C)=O)cn2)nn1 [Compound 7S] | < 5 |  |  |  |  |
| COc1c(Nc2cc(Nc3cnn(C)c3)ncc2C(C)=O)cccc1-c1ncn(C)n1 [Compound 7T] | 50 to 500 |  |  |  |  |
| COc1c(Nc2cc(Nc3ccn(C)n3)ncc2C(C)=O)cccc1-c1ncn(C)n1 [Compound 7U] | < 5 |  |  |  |  |
| CCC(=O)c1cnc(Nc2ccc(C(N)=O)cn2)cc1Nc1cccc(-c2ncn(C)n2)c1OC [Compound 8A, 6-((4-((2-methoxy-3-(1-methyl-1H-1,2,4-triazol-3-yl)phenyl)amino)-5-propionylpyridin-2-yl)amino)nicotinamide] |  | ≥ 500 | 50 to 500 | 50 to 500 | < 5 |
| CCC(=O)c1cnc(Nc2ccc(C(=O)O)cn2)cc1Nc1cccc(-c2ncn(C)n2)c1OC [Compound 8B] |  | ≥ 500 | ≥ 500 | ≥ 500 | 50 to 500 |
| CCC(=O)c1cnc(Nc2ccc(C(=O)NC)cn2)cc1Nc1cccc(-c2ncn(C)n2)c1OC [Compound 8C] |  | ≥ 500 | ≥ 500 | ≥ 500 | < 5 |
| CCC(=O)c1cnc(Nc2ccc(C(=O)N(C)C)cn2)cc1Nc1cccc(-c2ncn(C)n2)c1OC [Compound 8D] |  | ≥ 500 | ≥ 500 | ≥ 500 | < 5 |
| CCC(=O)c1cnc(Nc2cc(C(=O)O)ccn2)cc1Nc1cccc(-c2ncn(C)n2)c1OC [Compound 8E] |  | ≥ 500 | ≥ 500 | ≥ 500 | ≥ 500 |
| CCC(=O)c1cnc(Nc2cc(C(N)=O)ccn2)cc1Nc1cccc(-c2ncn(C)n2)c1OC [Compound 8F] |  | ≥ 500 | ≥ 500 | ≥ 500 | < 5 |
| CCC(=O)c1cnc(Nc2cc(C(=O)NC)ccn2)cc1Nc1cccc(-c2ncn(C)n2)c1OC [Compound 8G] |  | ≥ 500 | ≥ 500 | ≥ 500 | < 5 |
| CCC(=O)c1cnc(Nc2cc(C(=O)N(C)C)ccn2)cc1Nc1cccc(-c2ncn(C)n2)c1OC [Compound 8H] |  | ≥ 500 | ≥ 500 | ≥ 500 | < 5 |
| CCC(=O)c1cnc(Nc2cccc(C(=O)O)n2)cc1Nc1cccc(-c2ncn(C)n2)c1OC [Compound 8I] |  | ≥ 500 | ≥ 500 | ≥ 500 | ≥ 500 |
| CCC(=O)c1cnc(Nc2cccc(C(N)=O)n2)cc1Nc1cccc(-c2ncn(C)n2)c1OC [Compound 8J] |  | ≥ 500 | ≥ 500 | ≥ 500 | < 5 |
| CCC(=O)c1cnc(Nc2cccc(C(=O)NC)n2)cc1Nc1cccc(-c2ncn(C)n2)c1OC [Compound 8K] |  | ≥ 500 | ≥ 500 | ≥ 500 | < 5 |
| CCC(=O)c1cnc(Nc2cccc(C(=O)N(C)C)n2)cc1Nc1cccc(-c2ncn(C)n2)c1OC [Compound 8L] |  | ≥ 500 | ≥ 500 | ≥ 500 | 5 to 50 |
| CCC(=O)c1cnc(Nc2cc(C(N)=O)ncn2)cc1Nc1cccc(-c2ncn(C)n2)c1OC [Compound 8M] |  | ≥ 500 | ≥ 500 | ≥ 500 | < 5 |
| CCC(=O)c1cnc(Nc2cc(C(=O)NC)ncn2)cc1Nc1cccc(-c2ncn(C)n2)c1OC [Compound 8N] |  | ≥ 500 | ≥ 500 | ≥ 500 | < 5 |
| CCC(=O)c1cnc(Nc2cc(C(=O)N(C)C)ncn2)cc1Nc1cccc(-c2ncn(C)n2)c1OC [Compound 8O] |  | ≥ 500 | ≥ 500 | ≥ 500 | < 5 |
| CCC(=O)c1cnc(Nc2cc(C(C)NC)ncn2)cc1Nc1cccc(-c2ncn(C)n2)c1OC (stereo not drawn) [Compound 9PPPP] |  |  | 50 to 500 |  |  |
| CCC(=O)c1cnc(Nc2ccc(CN3CCN(C)CC3)nn2)cc1Nc1cccc(-c2ncn(C)n2)c1OC [Compound 9PPP] |  |  | 50 to 500 |  | 5 to 50 |
| CCC(=O)c1cnc(Nc2ccc(S(=O)(=O)N(C)C)cn2)cc1Nc1cccc(-c2ncn(C)n2)c1OC [Compound 13D] |  | ≥ 500 | ≥ 500 | ≥ 500 |  |
| CCC(=O)c1cnc(Nc2cnc(O[C@@H]3CCN(CC)C3)cn2)cc1Nc1cccc(-c2ncn(C)n2)c1OC [Compound 18DDD] |  |  |  |  | 5 to 50 |
| CCC(=O)c1cnc(Nc2cnc(C(F)(F)CN)cn2)cc1Nc1cccc(-c2ncn(C)n2)c1OC [Compound 19A, 1-(6-((5-(2-amino-1,1-difluoroethyl)pyrazin-2-yl)amino)-4-((2-methoxy-3-(1-methyl-1H-1,2,4-triazol-3-yl)phenyl)amino)pyridin-3-yl)propan-1-one] |  |  |  |  | 5 to 50 |
